Like-named read-outs stand apart in the source and are kept apart here.

The target in experiment [1] is cloned human P2Y1 receptors (Homo sapiens (Human), UniProt P47900). The experiment is described as follows: Binding Assay B: Scintillation Proximity Assay (SPA) for P2Y1 binding. As to the method: Binding Assay B—Scintillation Proximity Assay (SPA) for P2Y1 Binding
A SPA membrane binding assay was used to identify inhibitors of [^33P] […] Binding reactions were performed in 384-well OptiPlates (PerkinElmer Life Sciences, Cat #6007299) in a volume of 50 μL containing ˜15 fmol of P2Y1 receptor (1.7 μg of total protein), 0.3 nM [^33P] […] Reactions were allowed to proceed to completion at room temperature for 1 hour followed by centrifugation of the plate for 5 min. About 40 μL of the aqueous solution was aspirated. Plates were sealed and the [^33P]
Background: SPA uses beads or plates that emit light when radiolabelled molecules are held near them.

The subject of experiment [2] is human platelet rich plasma (PRP). The experiment is described as follows: ADP induced platelet aggregation assay. Format: cell-based. The note with it: 5 min, read-out: PA IC50 (μM) @ 10 μM ADP. As to the method:
ADP Induced Platelet Aggregation Assay
The ability of P2Y1 antagonists covered in the present invention to inhibit platelet aggregation induced by 10 μM ADP was tested using human platelet rich plasma (PRP) as described in Platelet Protocols: Research and Clinical Laboratory Procedures (White, M. M. et al., Academic Press (1999)). Human blood was collected in 30 μM (final concentration in blood) argatroban (GSK) as the anticoagulant at a ratio of 1 ml per 9 ml of blood. The PRP was isolated by centrifugation at 170 g for 12 minutes. The platelet poor plasma (PPP) was used as the blank for optical aggregometry. Compounds of the present invention in DMSO solution was preincubated with 250 μl PRP at 37° C. for 1 minute with stirring speed of 1000 rpm. Aggregation was initiated by addition of 2.5 μl of 1 mM ADP (Chrono-log, Havertown, Pa.) for a final ADP concentration of 10 uM. Platelet aggregation was monitored using Optical Aggregometer (Chrono-log, Havertown, Pa.) and the area under the curve (AUC) at 5 minute was measured. IC50 was calculated using vehicle control as 0% inhibition.
The platelet aggregation assay measures the in vitro antiplatelet activity of a compound in platelet rich plasma. The assay is sensitive to plasma protein binding, and is believed to be a better predictor of actual in vivo activity.

Where [3] appears, read: SPA, 0.3 nM [33P] 2MeS-ADP, Cheng-Prusoff, read-out: P2Y1 Ki (nM) using binding assay B.

cloned human P2Y1 receptors, sequence (P47900 whole entry): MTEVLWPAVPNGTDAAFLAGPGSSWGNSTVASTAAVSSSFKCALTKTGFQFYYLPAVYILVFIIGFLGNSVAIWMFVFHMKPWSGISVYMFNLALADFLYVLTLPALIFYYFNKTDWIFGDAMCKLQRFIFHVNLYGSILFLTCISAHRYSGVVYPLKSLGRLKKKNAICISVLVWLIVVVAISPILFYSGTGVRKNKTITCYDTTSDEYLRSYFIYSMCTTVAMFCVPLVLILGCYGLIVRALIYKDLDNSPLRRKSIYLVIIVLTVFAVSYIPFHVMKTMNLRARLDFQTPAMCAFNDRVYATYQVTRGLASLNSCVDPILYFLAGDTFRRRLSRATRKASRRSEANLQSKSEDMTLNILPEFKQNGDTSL

A word on the Ki: it is a measure of affinity in units of concentration, obtained from inhibition or displacement. A word on the IC50: it is the concentration that inhibits the measured activity by half. Turning to `CC(C)(C)CN1CCC2(CC1)CN(c1ccccc1Nc1nc(C(C)(C)C)ns1)c1c(O)ccc(Cl)c12` [Example 36, 1-(2-(3-tert-Butyl-1,2,4-thiadiazol-5-ylamino)phenyl)-4-chloro-1′-neopentylspiro[indoline-3,4′-piperidin]-7-ol], the affinity in experiment [1] corresponds to a Ki of 8 nM. The IC50 in experiment [2] turned out to be 2.1 µM.

For the molecule `CC(C)(C)CN1CCC2(CC1)CN(c1ccccc1Nc1nnc(-c3ccccn3)s1)c1c(O)ccc(C(F)(F)F)c12` [Example 6, 1′-Neopentyl-1-(2-(5-(pyridin-2-yl)-1,3,4-thiadiazol-2-ylamino)phenyl)-4-(trifluoromethyl)spiro[indoline-3,4′-piperidin]-7-ol], in experiment [1], affinity was put at a Ki of 11 nM. Besides, the IC50 in experiment [2] worked out at 2.3 µM.

On to `CC(C)(C)CN1CCC2(CC1)CN(c1ccccc1Nc1ncc(-c3ccccc3)s1)c1c(O)ccc(Cl)c12` [Example 11, 4-Chloro-1′-neopentyl-1-(2-(5-phenylthiazol-2-ylamino)phenyl)spiro[indoline-3,4′-piperidin]-7-ol], for which the Ki in experiment [1] was 16 nM. Further, the IC50 in experiment [2] stood at 3.7 µM.

As to `CC(C)(C)CN1CCC2(CC1)CN(c1ccccc1Nc1nc(-c3ccccc3)ns1)c1c(O)ccc(Cl)c12` [Example 35, 4-Chloro-1′-neopentyl-1-(2-(3-phenyl-1,2,4-thiadiazol-5-ylamino)phenyl)spiro[indoline-3,4′-piperidin]-7-ol], the Ki in experiment [1] (setting [3]) was found to be 6 nM. Also, the IC50 in experiment [2] was 5.4 µM.

For `CC(C)(C)CN1CCC2(CC1)CN(c1ccccc1Nc1nnc(-c3ccc(Cl)cc3)s1)c1c(O)ccc(Cl)c12` [Example 21, 4-chloro-1-(2-((5-(4-chloro-phenyl)-1,3,4-thiadiazol-2-yl)amino)phenyl)-1′-neopentylspiro[indoline-3,4′-piperidin]-7-ol], the Ki in experiment [1] (setting [3]) turned out to be 13 nM. Besides, the IC50 in experiment [2] worked out at 1.3 µM.

Consider `CC(C)(C)CN1CCC2(CC1)CN(c1ccccc1Nc1nc(C(C)(C)C)c(C#N)s1)c1c(O)ccc(Cl)c12` [Example 39, 4-tert-Butyl-2-(2-(4-chloro-7-hydroxy-1′-neopentylspiro[indoline-3,4′-piperidine]-1-yl)phenylamino)thiazole-5-carbonitrile], for which, in experiment [1], affinity was put at a Ki of 9 nM. Besides, the IC50 in experiment [2] was 4.9 µM.

`CC(C)(C)CN1CCC2(CC1)CN(c1ccccc1Nc1nnc(-c3ccccn3)s1)c1c(O)ccc(Cl)c12` [Example 28, 4-chloro-1′-neopentyl-1-(2-((5-(pyridin-2-yl)-1,3,4-thiadiazol-2-yl)amino)phenyl)-spiro[indoline-3,4′-piperidin]-7-ol] showed a Ki in experiment [1] of 6.8 nM. The IC50 in experiment [2] was found to be 5.8 µM.

`CC(C)(C)CN1CCC2(CC1)CN(c1ccccc1Nc1nnc(-c3ccc(OC(F)(F)F)cc3)s1)c1c(O)cc(F)c(Cl)c12` [Example 33, 4-chloro-5-fluoro-1′-neopentyl-1-(2-((5-(4-(trifluoromethoxy)-phenyl)-1,3,4-thiadiazol-2-yl)amino)phenyl)spiro[indoline-3,4′-piperidin]-7-ol]: the Ki in experiment [1] amounted to 23 nM. In addition, in experiment [2], the IC50 was determined as 9.2 µM.

In experiment [1], `CC(C)(C)CN1CCC2(CC1)CN(c1ccccc1Nc1nnc(-c3ccc(C(C)(C)C)cc3)s1)c1c(O)ccc(C#N)c12` [Example 46, 1-(2-(5-(4-tert-Butylphenyl)-1,3,4-thiadiazol-2-ylamino)phenyl)-7-hydroxy-1′-neopentylspiro[indoline-3,4′-piperidine]-4-carbonitrile] gave a Ki of 10 nM. Further, the IC50 in experiment [2] came to 1.1 µM.

Turning to `CC(C)(C)CN1CCC2(CC1)CN(c1ccccc1Nc1nnc(-c3ccc(OC(F)(F)F)cc3)s1)c1c(O)ccc(Cl)c12` [Example 26, 4-chloro-1′-neopentyl-1-(2-((5-(4-(trifluoromethoxy)phenyl)-1,3,4-thiadiazol-2-yl)amino)phenyl)spiro[indoline-3,4′-piperidin]-7-ol], the inhibitory constant (Ki) in experiment [1] (setting [3]) amounted to 13 nM. In addition, the IC50 in experiment [2] turned out to be 0.9 µM.

The values are drawn from US9120798B2, “Amino-heteroaryl 7-hydroxy-spiropiperidine indolinyl antagonists of P2Y1 receptor” (priority 2012, dated 2015).
